Results taken from patent US20230278972A1, “SUBSTITUTED HALOALKYL SULFONANILIDE HERBICIDES” (FMC Corporation, priority 2020, published 2023).
Where two headings read alike, the source gives them in different places.

Tests used:
[1] = tested on: corn (Zea mays); test: Test A postemergence, corn; assay type: in vivo; conditions: Zea mays, post-emergence, 240 h, Postemergence, 0 to 100 scale (0 no effect, 100 complete control); for Corn plant response rating (crop injury, 0 = no effect, 100 = complete kill) at 125 g/ha: 125 g ai/ha; for plant injury at 500 g/ha / Corn plant response rating (crop injury, 0 = no effect, 100 = complete kill) at 500 g/ha: 500 g ai/ha; for plant injury at 500 g/ha: visual injury vs untreated controls after approx. 10 days, read-out: Corn plant response rating
Method in brief: (§1)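 Greenhouse pot test in a loam–sand blend; compounds delivered in a non-phytotoxic solvent carrying a surfactant, applied either as a directed spray to soil at seeding or over seedlings 2 to 10 cm high with one to two leaves.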

[2] = tested on: barnyardgrass (Echinochloa crus-galli); test: Test B flooded paddy test, barnyardgrass; conditions: 336 h, read-out: Plant response rating, Barnyardgrass
[3] = tested on: Ryegrass, Italian (Italian ryegrass, Lolium multiflorum); test: Test A postemergence, Ryegrass, Italian; assay type: in vivo; conditions: Lolium multiflorum, post-emergence, 240 h, Postemergence, 0 to 100 scale (0 no effect, 100 complete control); for pest or weed control at 125 g/ha: 125 g ai/ha; for pest or weed control at 500 g/ha: 500 g ai/ha
Method in brief: as §1

[4] = tested on: wheat (Triticum aestivum); test: Test A postemergence, wheat; assay type: in vivo; conditions: Triticum aestivum, post-emergence, 240 h, Postemergence, 0 to 100 scale (0 no effect, 100 complete control); for plant injury at 125 g/ha: 125 g ai/ha; for plant injury at 500 g/ha: 500 g ai/ha
Method in brief: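 Postemergence ratings come from foliar sprays onto one- to two-leaf plants of 2 to 10 cm grown in loam/sand; preemergence ratings come from a directed spray onto the soil of newly seeded pots. Formulation was a surfactant-containing non-phytotoxic solvent blend.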

[5] = tested on: Foxtail, Giant (giant foxtail, Setaria faberi); test: Test A preemergence, Foxtail, Giant; assay type: in vivo; conditions: Setaria faberi, pre-emergence, 240 h, Preemergence; for pest or weed control at 125 g/ha: 125 g ai/ha; for pest or weed control at 500 g/ha: 500 g ai/ha
Method in brief: as §1

[6] = visual injury approx. 10 days, read-out: Plant response rating, Ryegrass, Italian
[7] = visual injury vs untreated controls after approx. 10 days, read-out: Ryegrass, Italian plant response rating
[8] = visual injury approx. 10 days, read-out: Plant response rating, Wheat
[9] = visual injury vs untreated controls after approx. 10 days, read-out: Wheat plant response rating
[10] = visual injury on 0 to 100 scale (0 no effect, 100 complete control), approximately 10 days, read-out: Foxtail, Giant plant response rating
[11] = 0 to 100 scale (0 no effect, 100 complete control), read-out: Plant response rating, Foxtail, Giant
[12] = read-out: Plant response rating, Ryegrass, Italian
[13] = read-out: Plant response rating, Wheat
[14] = visual injury, 0 to 100 scale (0 no effect, 100 complete control), approx. 10 days, read-out: Plant response rating, Foxtail, Giant
[15] = visual injury, approx. 10 days, read-out: Plant response rating, Ryegrass, Italian
[16] = visual injury, approx. 10 days, read-out: Plant response rating, Wheat

SMILES | Corn plant response rating (crop injury, 0 = no effect, 100 = complete kill) at 125 g/ha ([1]; visual injury approx. 10 days) | plant injury at 500 g/ha [1] | pest or weed control at 250 g/ha [2] | pest or weed control at 125 g/ha [3, 6] | pest or weed control at 500 g/ha [3, 7] | plant injury at 125 g/ha [4, 8] | plant injury at 500 g/ha [4, 9] | pest or weed control at 125 g/ha [5, 10] | pest or weed control at 500 g/ha [5, 11] | Corn plant response rating (crop injury, 0 = no effect, 100 = complete kill) at 125 g/ha [1] | pest or weed control at 125 g/ha [3, 12] | plant injury at 125 g/ha [4, 13] | pest or weed control at 125 g/ha [5, 14] | Corn plant response rating (crop injury, 0 = no effect, 100 = complete kill) at 500 g/ha ([1]; visual injury, approx. 10 days) | pest or weed control at 500 g/ha [3, 15] | plant injury at 500 g/ha [4, 16] | pest or weed control at 500 g/ha [5, 10] | Corn plant response rating (crop injury, 0 = no effect, 100 = complete kill) at 500 g/ha ([1]; visual injury approx. 10 days) | pest or weed control at 500 g/ha [3, 6] | plant injury at 500 g/ha [4, 8]
Cc1cc(C)c(C2=NOC3COCCC23)cc1NS(=O)(=O)C(F)(F)F (stereo not drawn) [Compound 121, N-[2,4-Dimethyl-5-(3a,4,7,7a-tetrahydro-5H-pyrano[4,3-d]isoxazol-3-yl)phenyl]-1,1,1-trifluoromethanesulfonamide] | 50% | 80% | 40% | 90% | 80% | 60% | 70% | 100% | 100% |  |  |  |  |  |  |  |  |  |  | 
Cc1cc(C)c(N(COC(=O)C(C)(C)C)S(=O)(=O)C(F)(F)F)cc1C1=NO[C@@H]2CCC[C@H]12 [Compound 100, [[2,4-Dimethyl-5-[(3aR,6aR)-3a,5,6,6a-tetrahydro-4H-cyclopent[d]isoxazol-3-yl]phenyl][(trifluoromethyl)sulfonyl]amino]methyl 2,2-dimethylpropanoate] | 10% | 30% | 90% | 20% | 40% | 20% | 50% | 40% | 90% |  |  |  |  |  |  |  |  |  |  | 
Cc1cc(C)c(C2=NOC3(CCCCC3)C2)cc1NS(=O)(=O)C(F)(F)F [Compound 197, N-[2,4-Dimethyl-5-(1-oxa-2-azaspiro[4.5]dec-2-en-3-yl)phenyl]-1,1,1-trifluoromethanesulfonamide] |  | 80% | 95% |  | 60% |  | 70% |  | 100% | 20% | 50% | 60% | 100% |  |  |  |  |  |  | 
Cc1cc(C)c(C2=NO[C@@H]3CCC[C@H]23)cc1NS(=O)(=O)C(F)(F)F [Compound 103, N-[2,4-Dimethyl-5-[(3aR,6aR)-3a,5,6,6a-tetrahydro-4H-cyclopent[d]isoxazol-3-yl]phenyl]-1,1,1-trifluoromethanesulfonamide] | 20% | 70% | 85% | 90% | 90% | 60% | 80% | 90% | 100% |  |  |  |  |  |  |  |  |  |  | 
Cc1c(NS(=O)(=O)C(F)(F)F)cc(C(=O)N2CCOCC2)c(C)c1F [Compound 190, 1,1,1-Trifluoro-N-[3-fluoro-2,4-dimethyl-5-(4-morpholinylcarbonyl)phenyl]methanesulfonamide] |  | 30% | 0% |  | 90% |  | 70% |  | 100% | 0% | 80% | 40% | 90% |  |  |  |  |  |  | 
Cc1cc(Cl)c(NS(=O)(=O)C(F)(F)F)cc1C(=O)N1CCCCC1 [Compound 18, N-[2-Chloro-4-methyl-5-(1-piperidinylcarbonyl)phenyl]-1,1,1-trifluoromethanesulfonamide] | 0% |  | 0% | 10% |  | 0% |  | 100% | 100% |  |  |  |  | 0% | 40% | 70% |  |  |  | 
Cc1cc(C)c(C2=NOC3CCOCC23)cc1NS(=O)(=O)C(F)(F)F (stereo not drawn) [Compound 120, N-[2,4-Dimethyl-5-(3a,6,7,7a-tetrahydro-4H-pyrano[3,4-d]isoxazol-3-yl)phenyl]-1,1,1-trifluoromethanesulfonamide] | 0% | 70% | 0% | 90% | 80% | 70% | 70% | 100% | 100% |  |  |  |  |  |  |  |  |  |  | 
Cc1cc(Cl)c(NS(=O)(=O)C(F)(F)F)cc1C(=O)N1CCC(F)(F)CC1 [Compound 229, N-[2-Chloro-5-[(4,4-difluoro-1-piperidinyl)carbonyl]-4-methylphenyl]-1,1,1-trifluoromethanesulfonamide] |  | 70% | 10% |  | 70% |  | 70% |  |  | 20% | 30% | 60% | 60% |  |  |  | 100% |  |  | 
Cc1c(NS(=O)(=O)C(F)(F)F)cc(C(=O)N(C)C)c(C)c1F [Compound 128, 3-Fluoro-N,N,2,4-tetramethyl-5-[[(trifluoromethyl)sulfonyl]amino]benzamide] | 10% | 60% | 30% | 80% | 100% | 30% | 60% | 50% | 100% |  |  |  |  |  |  |  |  |  |  | 
CCc1cc(-c2cc(NS(=O)(=O)C(F)(F)F)c(C)cc2C)c(=O)n(C)n1 [Compound 34, N-[5-(6-Ethyl-2,3-dihydro-2-methyl-3-oxo-4-pyridazinyl)-2,4-dimethylphenyl]-1,1,1-trifluoromethanesulfonamide] | 0% |  | 0% | 0% |  | 0% |  | 0% | 30% |  |  |  |  | 0% | 0% | 0% |  |  |  | 
Cc1cc(C)c(N(COC(=O)C(C)(C)C)S(=O)(=O)C(F)(F)F)cc1C1=NOC2(CCCCC2)C1 [Compound 159, [[2,4-Dimethyl-5-(1-oxa-2-azaspiro[4.5]dec-2-en-3-yl)phenyl][(trifluoromethyl)sulfonyl]amino]methyl 2,2-dimethylpropanoate] |  | 30% | 65% |  | 0% |  | 50% | 30% | 70% | 0% | 0% | 30% |  |  |  |  |  |  |  | 
Cc1cc(C)c(C2=NOC3(CCCC3)C2)cc1NS(=O)(=O)C(F)(F)F [Compound 207, N-[2,4-Dimethyl-5-(1-oxa-2-azaspiro[4.4]non-2-en-3-yl)phenyl]-1,1,1-trifluoromethanesulfonamide] |  | 70% | 75% |  | 90% |  | 70% |  | 100% | 20% | 40% | 60% | 90% |  |  |  |  |  |  | 
Cc1cc(C)c(C(=O)N2CCC(F)(F)CC2)cc1NS(=O)(=O)C(F)(F)F [Compound 241, N-[5-[(4,4-Difluoro-1-piperidinyl)carbonyl]-2,4-dimethylphenyl]-1,1,1-trifluoromethanesulfonamide] |  |  | 25% |  |  |  |  |  |  | 10% | 0% | 30% | 80% |  |  |  | 100% | 20% | 70% | 70%
